Columns and labels:
PIM3 = PIM3 (Homo sapiens, UniProt Q86V86); experiment: KinaseGlo Pim3 ATP depletion assay; assay type: biochemical
Method: KinaseGlo Pim3 ATP Depletion Assay
The activity of PIM3 is measured using a luciferase-luciferin based ATP detection reagent to quantify ATP depletion resulting from kinase-catalyzed phosphoryl transfer to a peptide substrate. Compounds to be tested are dissolved in 100% DMSO and directly distributed into white 384-well plates at 0.5 μl per well. To start the reaction, 10 μl of 10 nM Pim3 kinase and 200 μM BAD peptide (RSRHSSYPAGT-OH) in assay buffer (50 mM HEPES pH 7.5, 5 mM MgCl2, 1 mM DTT, 0.05% BSA) is added into each well. After 15 minutes, 10 μl of 80 μM ATP in assay buffer is added. Final assay concentrations are 5 nM […], 40 μM ATP, 100 μM BAD peptide and 2.5% DMSO. The reaction is performed until approximately 50% of the ATP is depleted, then stopped by the addition of 20 μl KinaseGlo Plus (Promega Corporation) solution. The stopped reaction is incubated for 10 minutes and the remaining ATP detected via luminescence on the Victor2 (Perkin Elmer).

[1] = test system: KMS11 (human myeloma cell line); experiment: Cell proliferation assay (CellTiter-Glo), KMS11; assay type: cell-based; settings: Homo sapiens, KMS-11; KMS11-Luc cells
Method: KMS11 (human myeloma cell line), were cultured in IMDM supplemented with 10% FBS, sodium pyruvate and antibiotics. Cells were plated in the same medium at a density of 2000 cells per well into 96 well tissue culture plates, with outside wells vacant, on the day of assay. MMl.s (human myeloma cell line), were cultured in RPMI1640 supplemented with 10% FBS, sodium pyruvate and antibiotics. Cells were plated in the same medium at a density of 5000 cells per well into 96 well tissue culture plates, with outside wells vacant, on the day of assay.
Test compounds supplied in DMSO were diluted into DMSO at 500 times the desired final concentrations before dilution into culture media to 2 times final concentrations. Equal volumes of 2× compounds were added to the cells in 96 well plates and incubated at 37° C. for 3 days.
After 3 days plates were equilibrated to room temperature and equal volume of CellTiter-Glow Reagent (Promega) was added to the culture wells. The plates were agitated briefly and luminescent signal was measured with luminometer.
Using the procedures of Cell Proliferation Assay, the EC50 concentration of indicated compounds of the examples in were determined in KMS11 cells as shown in Table 4.

PIM1 = PIM1 (Homo sapiens, UniProt P11309); experiment: KinaseGlo Pim1 ATP depletion assay; assay type: biochemical
Method: KinaseGlo Pim1 ATP Depletion Assay
The activity of PIM1 is measured using a luciferase-luciferin based ATP detection reagent to quantify ATP depletion resulting from kinase-catalyzed phosphoryl transfer to a peptide substrate. Compounds to be tested are dissolved in 100% DMSO and directly distributed into white 384-well plates at 0.5 μA per well. To start the reaction, 10 μA of 5 nM Pim1 kinase and 80 μM BAD peptide (RSRHSSYPAGT-OH) in assay buffer (50 mM HEPES pH 7.5, 5 mM MgCl2, 1 mM DTT, 0.05% BSA) is added into each well. After 15 minutes, 10 μl of 40 μM ATP in assay buffer is added. Final assay concentrations are 2.5 nM PIM1, 20 μM ATP, 40 μM BAD peptide and 2.5% DMSO. The reaction is performed until approximately 50% of the ATP is depleted, then stopped with the addition of 20 μA KinaseGlo Plus (Promega Corporation) solution. The stopped reaction is incubated for 10 minutes and the remaining ATP detected via luminescence on the Victor2 (Perkin Elmer). […] IC50, the half maximal inhibitory concentration, represents the concentration of a test compound that is required for 50% inhibition of its target in vitro.

PIM2 = PIM2 (Homo sapiens, UniProt Q9P1W9); experiment: KinaseGlo Pim2 ATP depletion assay; assay type: biochemical
Method: KinaseGlo Pim2 ATP Depletion Assay
The activity of PIM2 is measured using a luciferase-luciferin based ATP detection reagent to quantify ATP depletion resulting from kinase-catalyzed phosphoryl transfer to a peptide substrate. Compounds to be tested are dissolved in 100% DMSO and directly distributed into white 384-well plates at 0.5 piper well. To start the reaction, 10 μl of 10 nM Pim2 kinase and 20 μM BAD peptide (RSRHSSYPAGT-OH) in assay buffer (50 mM HEPES pH 7.5, 5 mM MgCl2, 1 mM DTT, 0.05% BSA) is added into each well. After 15 minutes, 10 μl of 8 μM ATP in assay buffer is added. Final assay concentrations are 5 nM PIM2, 4 μM ATP, 10 μM BAD peptide and 2.5% DMSO. The reaction is performed until approximately 50% of the ATP is depleted, then stopped with the addition of 20 μl KinaseGlo Plus (Promega Corporation) solution. The stopped reaction is incubated for 10 minutes and the remaining ATP detected via luminescence on the Victor2 (Perkin Elmer).

GSK3β = GSK3β (Homo sapiens, UniProt P49841); experiment: GSK3β ATP depletion assay; assay type: biochemical; settings: read-out: GSK3b IC50
Method: GSK3β ATP Depletion Assay
The activity of GSK3β is measured using a luciferase-luciferin based ATP detection reagent to quantify ATP depletion resulting from kinase-catalyzed phosphoryl transfer to a peptide substrate. Compounds to be tested are dissolved in 100% DMSO and directly distributed into white 384-well plates at 0.5 μl per well. To start the reaction, 10 μl of 10 nM GSK3B kinase and 20 μM biotinylated CREB peptide ([…](pS)YR-NH2) in assay buffer (50 mM TRIS pH 7.5, 15 mM MgCl2, 1 mM DTT, 0.1% BSA) is added into each well. After 15 minutes, 10 μl of 2 μM ATP in assay buffer is added. Final assay concentrations are 5 nM GSK3B, […], 10 μM b-CREB peptide and 2.5% DMSO. The reaction is performed until approximately 50% of the ATP is depleted, then stopped with the addition of 20 μl KinaseGlo (Promega Corporation) solution. The stopped reaction is incubated for 10 minutes and the remaining ATP is detected via luminescence on the Victor2 (Perkin Elmer).

Chain of PIM2 (Q9P1W9 whole entry): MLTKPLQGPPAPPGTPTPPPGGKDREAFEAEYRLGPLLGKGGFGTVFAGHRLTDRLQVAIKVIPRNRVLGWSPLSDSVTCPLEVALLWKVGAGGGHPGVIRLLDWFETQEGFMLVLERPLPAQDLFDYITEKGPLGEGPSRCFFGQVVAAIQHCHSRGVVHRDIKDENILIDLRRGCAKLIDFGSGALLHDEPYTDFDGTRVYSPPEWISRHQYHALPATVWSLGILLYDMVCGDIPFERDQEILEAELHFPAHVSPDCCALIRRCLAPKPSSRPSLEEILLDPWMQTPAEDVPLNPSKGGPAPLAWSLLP
Chain of PIM1 (P11309 whole entry): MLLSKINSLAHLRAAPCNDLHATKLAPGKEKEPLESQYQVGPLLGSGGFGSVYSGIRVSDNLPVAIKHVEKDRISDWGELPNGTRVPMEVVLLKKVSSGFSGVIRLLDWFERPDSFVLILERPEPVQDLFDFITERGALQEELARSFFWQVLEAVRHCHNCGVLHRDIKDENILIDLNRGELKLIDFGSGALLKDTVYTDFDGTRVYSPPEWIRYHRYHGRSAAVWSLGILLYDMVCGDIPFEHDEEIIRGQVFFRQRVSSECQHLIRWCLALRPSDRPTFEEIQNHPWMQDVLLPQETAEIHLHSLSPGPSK
Chain of GSK3β (P49841 whole entry, species assumed): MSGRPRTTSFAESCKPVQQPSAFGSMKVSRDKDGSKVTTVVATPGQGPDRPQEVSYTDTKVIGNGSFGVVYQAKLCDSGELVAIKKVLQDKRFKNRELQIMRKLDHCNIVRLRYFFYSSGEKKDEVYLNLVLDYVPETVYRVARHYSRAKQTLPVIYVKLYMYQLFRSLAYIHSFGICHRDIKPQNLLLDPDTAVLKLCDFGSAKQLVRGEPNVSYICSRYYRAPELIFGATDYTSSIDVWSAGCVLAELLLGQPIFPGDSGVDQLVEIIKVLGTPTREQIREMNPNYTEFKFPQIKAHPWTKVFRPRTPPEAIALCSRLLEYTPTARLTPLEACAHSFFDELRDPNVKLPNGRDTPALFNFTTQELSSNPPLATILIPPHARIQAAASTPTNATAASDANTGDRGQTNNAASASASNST

SMILES | IC50 (PIM3) [µM] | EC50 [1] [µM] | IC50 (PIM1) [µM] | IC50 (PIM2) [µM] | IC50 (GSK3β) [µM]
CC[C@@H]1O[C@H](c2ccncc2NC(=O)c2nc(-c3c(F)cccc3F)ncc2N)C[C@H](O)[C@@]1(C)O [Example 167, 5-amino-2-(2,6-difluorophenyl)-N-(4-((2S,4S,5R,6S)-6-ethyl-4,5-dihydroxy-5-methyltetrahydro-2H-pyran-2-yl)pyridin-3-yl)pyrimidine-4-carboxamide] | 0.0867 | > 10 | 0.0655 | 0.092 | 3.41
Nc1cc(F)c(-c2ccccc2F)nc1C(=O)Nc1cnccc1C1=CC(=O)[C@H](O)[C@@H](CCl)O1 [Example 151, 3-amino-N-(4-((2S,3R)-2-(chloromethyl)-3-hydroxy-4-oxo-3,4-dihydro-2H-pyran-6-yl)pyridin-3-yl)-5-fluoro-6-(2-fluorophenyl)picolinamide] | 0.0251 | > 10 | 0.0052 | 0.0842 | 1.43
O=C(Nc1cnccc1[C@H]1C[C@@H](O)[C@@]2(O)CCC[C@H]2O1)c1ccnn(-c2ccccc2F)c1=O [Example 201, N-(4-((2R,4R,4aS,7aR)-4,4a-dihydroxyoctahydrocyclopenta[b]pyran-2-yl)pyridin-3-yl)-2-(2-fluorophenyl)-3-oxo-2,3-dihydropyridazine-4-carboxamide] | 0.132 | > 10 | 0.149 | 3.21 | 0.383
O=C(Nc1cnccc1[C@H]1C[C@@H](O)[C@@]2(O)CCCC[C@H]2O1)c1ccnn(-c2ccccc2F)c1=O [Example 190, N-(4-((2R,4R,4aS,8aR)-4,4a-dihydroxyoctahydro-2H-chromen-2-yl)pyridin-3-yl)-2-(2-fluorophenyl)-3-oxo-2,3-dihydropyridazine-4-carboxamide] | 0.0355 | > 10 | 0.0339 | 0.494 | 0.0385
O=C(Nc1cnccc1[C@@H]1C[C@H](O)[C@]2(O)CCC[C@@H]2O1)c1cccn(-c2ccccc2)c1=O [Example 192, N-(4-((2S,4S,4aR,7aS)-4,4a-dihydroxyoctahydrocyclopenta[b]pyran-2-yl)pyridin-3-yl)-2-oxo-1-phenyl-1,2-dihydropyridine-3-carboxamide] | > 25 | > 10 | > 25 | > 25 | > 25
Nc1cnc(-c2c(F)cccc2F)nc1C(=O)Nc1cnccc1[C@H]1C[C@@H](O)[C@H](O)[C@@H](C2CC2)O1 [Example 207, 5-amino-N-(4-((2R,4R,5S,6R)-6-cyclopropyl-4,5-dihydroxytetrahydro-2H-pyran-2-yl)pyridin-3-yl)-2-(2,6-difluorophenyl)pyrimidine-4-carboxamide] | 0.0085 | 6.45 | 0.0063 | 0.006 | 0.572

Continued by falling IC50 (PIM3), values first:

IC50 (PIM3) [µM] | EC50 [1] [µM] | IC50 (PIM1) [µM] | IC50 (PIM2) [µM] | IC50 (GSK3β) [µM] | SMILES
0.373 | > 10 | 0.258 | 2.25 | > 25 | Nc1cnc(-c2c(F)cccc2F)nc1C(=O)Nc1cnccc1[C@@H]1C[C@H](N)[C@]2(O)CCC[C@@H]2O1 [Example 214, 5-amino-N-(4-((2S,4S,4aR,7aS)-4-amino-4a-hydroxyoctahydrocyclopenta[b]pyran-2-yl)pyridin-3-yl)-2-(2,6-difluorophenyl)pyrimidine-4-carboxamide]
0.038 | 5 | 0.022 | 0.17 | 0.061 | CC[C@H]1O[C@@H](c2ccncc2NC(=O)c2ccnc(-c3c(F)cccc3F)n2)C[C@@H](O)[C@@H]1O [Example 34, 2-(2,6-difluorophenyl)-N-(4-((2R,4R,5S,6R)-6-ethyl-4,5-dihydroxytetrahydro-2H-pyran-2-yl)pyridin-3-yl)pyrimidine-4-carboxamide]
0.026 | 5.5 | 0.002 | 0.101 | 0.911 | O=C(Nc1cnccc1[C@H]1C[C@H](Cl)[C@H](O)[C@@H](CCl)O1)c1ccc(F)c(-c2c(F)cccc2F)n1 [Example 55, N-(4-((2R,4S,5R,6S)-4-chloro-6-(chloromethyl)-5-hydroxytetrahydro-2H-pyran-2-yl)pyridin-3-yl)-6-(2,6-difluorophenyl)-5-fluoropicolinamide]
0.009 | > 10 | 0.02 | 0.16 | 0.87 | C=C[C@H]1OC(c2ccncc2NC(=O)c2nc(-c3ccccc3)ncc2N)=C[C@@H](O)[C@@H]1O [Example 22, 5-amino-N-(4-((2R,3S,4R)-3,4-dihydroxy-2-vinyl-3,4-dihydro-2H-pyran-6-yl)pyridin-3-yl)-2-phenylpyrimidine-4-carboxamide]
0.0069 | > 10 | 0.0088 | 0.0681 | 0.0231 | CC[C@]1(O)[C@H](O)C[C@H](c2ccncc2NC(=O)c2ncccc2N)O[C@@H]1C [Example 158, 3-amino-N-(4-((2R,4R,5S,6R)-5-ethyl-4,5-dihydroxy-6-methyltetrahydro-2H-pyran-2-yl)pyridin-3-yl)picolinamide]
0.005 | 4.2 | 0.001 | 0.015 | 0.344 | C[C@H]1O[C@@H](c2ccncc2NC(=O)c2ccc(F)c(-c3c(F)cccc3F)n2)C[C@H](O)[C@@H]1O [Example 108, 6-(2,6-difluorophenyl)-N-(4-((2R,4S,5S,6R)-4,5-dihydroxy-6-methyltetrahydro-2H-pyran-2-yl)pyridin-3-yl)-5-fluoropicolinamide]
0.0016 | 2.63 | 0.0005 | 0.0013 | 0.0198 | O=C(Nc1cnccc1[C@H]1C[C@@H](O)[C@@]2(O)CCCC[C@H]2O1)c1ccc(F)c(-c2c(F)cccc2F)n1 [Example 174, 6-(2,6-difluorophenyl)-N-(4-((2R,4R,4aS,8aR)-4,4a-dihydroxyoctahydro-2H-chromen-2-yl)pyridin-3-yl)-5-fluoropicolinamide]
